Assay results taken from patent US6319929A, “Suksdorfin analogs, compositions thereof, and methods for making and using thereof” (priority 1998, dated 2001).
Where “and” joins values, the source holds several entries; their conditions need not be identical. Equal values may be shown once. Read-outs that look alike come from different tables or passages of the source.

Tests used:
[1] = system: HIV-1 replication in PBMCs; experiment: HIV-1 replication in acutely infected PBMCs; type: cell-based, HIV-1 (IIIB); settings: for EC50: Human immunodeficiency virus 1, PBMC, PBMCs; for suppression of acute HIV-1 replication in PBMCs (in words): fresh PBMCs
Procedure: Suksdorf in was tested on peripheral blood mononuclear cells (PBMCS) which were stimulated for 3 days with PHA (1 .parallel.g/ml). The cells were collected and then infected with the 20X stock HIV-1 (IIIB). This is the same virus that is used in the drug screening assay. PBMCs were used for the following reasons: (1) It is another type of T cell infection. (2) PMBCs are freshly isolated cells not a cell line as are H9 cells. (3) We need to know if the effects of suksdorfin were limited to only an acute HIV-1 infection of a T cell line such as H9 cells. After the cells were infected with HIV-1, the cells were washed and then placed in medium with the cytokine, interleukin 2 (IL-2). IL-2 is needed to keep the cells activated which is necessary also for virus replication.
(§1) As part of efforts to biologically characterize 16 the monocytic cell line, U937 and peripheral blood mononuclear cells (PBMCs) were separately infected with HIV-1 and then had various concentrations of the analog added for 4 days of culture.
(§2) HIV Growth Inhibition Assay: The T cell line, H9, and the promonocytic cell line, U937, were maintained separately in continuous culture with complete medium (RPMI 1640 and […] fetal calf serum (FCS) at 5% CO2 and 37° C. Cell lines were used in experiments only when in log phase of growth; whereas, uninfected peripheral blood mononuclear cells (PBMCs) were first stimulated with PHA (1 μg/ml) for 3 days. All cell targets were incubated with HIV-1 (IIIB isolate, TCID50 10 ^4 IU/mi, at a multiplicity of infection of 0.1-0.01 IU/cell) for 1 hour at 37° C. and 5% CO2. The cell lines and PBMCs were washed thoroughly to remove unabsorbed virions and resuspended at 4×10^5 cells/ml in complete medium or complete medium with 10% v/v interleukin […] IL-2, respectively. Aliquots ( ml) were placed in wells of 24-well culture plates containing an equal volume of test compound (diluted in the appropriate culture medium). After incubation for 4 days at 37° C., cell density of uninfected cultures was determined by counting cells in a Coulter counter to assess toxicity of the test compound. A p24 antigen ELISA assay was used to determine the level of virus released in the medium of the HIV-infected cultures. The p24 antigen assay uses a HIV-1 anti-p24 specific monoclonal antibody as the capture antibody coated-on 96-well plates. Following a sample incubation period, rabbit serum containing antibodies for HIV-1 p24 is used to tag any p24 "captured" onto the microtiter well surface. Peroxidase conjugated goat anti-rabbit serum is then used to tag HIV-1 p24 specific rabbit antibodies which have complexed with captured p24. […] The cut-off for the p24 ELISA assay is 12. pg/ml. P24 in the culture medium was quantitated against a standard curve containing known amounts of p24. The effective (EC50) and inhibitory (IC50) concentrations (for anti-HIV activity and cytotoxicity, respectively) were determined graphically. Both the EC50 and IC50 values were calculated by plotting drug concentration versus percent inhibition, and then identifying a 50% inhibition value from the graph.

[2] = system: HIV-1 replication in U937 cells; experiment: HIV-1 replication in acutely infected promonocytic U937 cells; type: cell-based, HIV-1 (IIIB); settings: for EC50: Human immunodeficiency virus 1, U-937
Procedure: Suksdorfin was also tested on an acute HIV-1 infection of the promonocytic cell line, U937. This was done again to determine drug specificity but this time on a monocytic cell line.
as §1, §2

[3] = system: HIV-1 replication in fresh monocytes; experiment: HIV-1 infection of fresh monocytes obtained by adherence (p24); type: cell-based; settings: for inhibition at 0.032 µg/mL / inhibition at 0.16 µg/mL / inhibition at 0.8 µg/mL / inhibition at 4 µg/mL / inhibition at 20 µg/mL: Human immunodeficiency virus 1, Monocyte, read-out: % suppression
Source text: Results (Table 12) from adding Suksdorfin to fresh monocytes infected with HIV-1.
The monocytes which were used for this experiment were obtained by adherence and not by elutriation; therefore, this cell population is not as pure as what was used for the 16 monocyte data above.

## CC(=O)O[C@@H]1[C@H](OC(=O)CC(C)C)c2c(ccc3ccc(=O)oc23)OC1(C)C [Suksdorfin, suksdorfin]
[1]
  EC50: 3900 nM
  suppression of acute HIV-1 replication in PBMCs (in words): can suppress an acute HIV-1 replication
[1]; Table 6
  EC50: 1.5 µg/mL
[2]; U937 cell line
  EC50: 0.58 µg/mL
[2]; U937 cells
  EC50: 1500 nM
  suppression of acute HIV-1 replication in U937 cells (in words): can suppress an acute HIV-1 replication
[2]; U937 cell line, 5760 min
  Therapeutic Index: > 34.5
[2]; U937 versus PBMCs
  EC50 from U937 cells relative to that for PBMCs: approximately one third
[3]; Day 6, 0.032 μg/ml
  p24: 64,614 pg/ml
[3]; Day 6, 0.16 μg/ml
  p24: 70,195 pg/ml
[3]; Day 6, 0.8 μg/ml
  p24: 53,043 pg/ml
[3]; Day 6, 4 μg/ml
  p24: 48,748 pg/ml
[3]; Day 6, 20 μg/ml
  p24: 16,712 pg/ml
[3]; Day 12, 0.032 μg/ml
  p24: 173,998 pg/ml
[3]; Day 12, 0.16 μg/ml
  p24: 203,633 pg/ml
[3]; Day 12, 0.8 μg/ml
  p24: 163,656 pg/ml
[3]; Day 12, 4 μg/ml
  p24: 89,467 pg/ml
[3]; Day 12, 20 μg/ml
  p24: 25,567 pg/ml
[3]; Day 18, 0.032 μg/ml
  p24: 105,882 pg/ml
[3]; Day 18, 0.16 μg/ml
  p24: 125,440 pg/ml
[3]; Day 18, 0.8 μg/ml
  p24: 130,970 pg/ml
[3]; Day 18, 4 μg/ml
  p24: 103,834 pg/ml
[3]; Day 18, 20 μg/ml
  p24: 23,506 pg/ml
[3]; 144 h, Day 6, 0.032 μg/ml
  inhibition at 0.032 µg/mL: 0%
[3]; 144 h, Day 6, 0.16 μg/ml
  inhibition at 0.16 µg/mL: 0%
[3]; 144 h, Day 6, 0.8 μg/ml
  inhibition at 0.8 µg/mL: 0%
[3]; 144 h, Day 6, 4 μg/ml
  inhibition at 4 µg/mL: 18%
[3]; 144 h, Day 6, 20 μg/ml
  inhibition at 20 µg/mL: 72%
[3]; 288 h, Day 12, 0.032 μg/ml
  inhibition at 0.032 µg/mL: 0%
[3]; 288 h, Day 12, 0.16 μg/ml
  inhibition at 0.16 µg/mL: 0%
[3]; 288 h, Day 12, 0.8 μg/ml
  inhibition at 0.8 µg/mL: 40%
[3]; 288 h, Day 12, 4 μg/ml
  inhibition at 4 µg/mL: 67%
[3]; 288 h, Day 12, 20 μg/ml
  inhibition at 20 µg/mL: 91%
[3]; 432 h, Day 18, 0.032 μg/ml
  inhibition at 0.032 µg/mL: 0%
[3]; 432 h, Day 18, 0.16 μg/ml
  inhibition at 0.16 µg/mL: 0%
[3]; 432 h, Day 18, 0.8 μg/ml
  inhibition at 0.8 µg/mL: 0%
[3]; 432 h, Day 18, 4 μg/ml
  inhibition at 4 µg/mL: 0%
[3]; 432 h, Day 18, 20 μg/ml
  inhibition at 20 µg/mL: 78%
[3]; suksdorfin at 20 and 4 μg/ml, AZT positive control
  suppression of HIV-1 replication in fresh monocytes (in words): did suppress HIV-1 replication in fresh monocytes

## CC1(C)Oc2ccc3ccc(=O)oc3c2[C@@H](OC(=O)[C@@]23CC[C@@](C)(C(=O)O2)C3(C)C)[C@H]1OC(=O)[C@@]12CC[C@@](C)(C(=O)O1)C2(C)C [Compound 16, 3',4'-Di-O-(-)-Camphanoyl-(+)-cis-Khellactone]
[1]
  EC50: 0.018 µg/mL and 29 nM
  suppression of acute HIV-1 replication in PBMCs (in words): suppression detected
[2]; U937 cell line
  EC50: 0.00128 µg/mL
[2]; U937 cells
  EC50: 2.1 nM
  suppression of acute HIV-1 replication in U937 cells (in words): suppression detected

## Cc1cn([C@H]2C[C@H](N=[N+]=[N-])[C@@H](CO)O2)c(=O)[nH]c1=O [AZT, azidothymidine, reference compound]
[3]; Day 6, 0.008 μg/ml
  p24: 42,004 pg/ml
[3]; Day 6, 0.04 μg/ml
  p24: 23,234 pg/ml
[3]; Day 6, 0.2 μg/ml
  p24: 34,360 pg/ml
[3]; Day 6, 1 μg/ml
  p24: 8,705 pg/ml
[3]; Day 6, 5 μg/ml
  p24: 13,542 pg/ml
[3]; Day 12, 0.008 μg/ml
  p24: 70,380 pg/ml
[3]; Day 12, 0.04 μg/ml
  p24: 17,144 pg/ml
[3]; Day 12, 0.2 μg/ml
  p24: 32,778 pg/ml
[3]; Day 12, 1 μg/ml
  p24: 5,354 pg/ml
[3]; Day 12, 5 μg/ml
  p24: 10,170 pg/ml
[3]; Day 18, 0.008 μg/ml
  p24: 75,428 pg/ml
[3]; Day 18, 0.04 μg/ml
  p24: 22,993 pg/ml
[3]; Day 18, 0.2 μg/ml
  p24: 31,759 pg/ml
[3]; Day 18, 1 μg/ml
  p24: 6,830 pg/ml
[3]; Day 18, 5 μg/ml
  p24: 12,330 pg/ml
